The data set deals with skin. The data set can be described thus: 21-Day Cumulative Irritation Test. In kind it is in vivo, human. On the procedure: Each of the formulations of Examples 1-11 was evaluated for its tendency to cause skin erythema using the 21-Day Cumulative Irritation Test. In this test, 0.2 g of undiluted deodorant is applied daily for 21 days (excluding weekends) to the same 2-cm square patch of skin, which is occluded between applications. Each weekday during the test period, trained personnel grade the portion of skin where the test material is applied for signs of irritation and reapply the test material. Subjects fulfill specific inclusion criteria including not pregnant or breast feeding, over 18 years old, and without medical conditions which would interfere with the test. The grading system used is as follows:
0.5 Papular or papulovesicular response and/or dryness without erythema […]
The total score is calculated by summing each individual's score on the 21 days of the test. […] The normalized score is the total score divided by the total number of readings for all subjects and multiplied by 21 (the number of readings) and by 10 (to normalize to 10 subjects). Normalized scores are analyzed using ANOVA (analysis of variance technique described in Duncan, A. J., “Analysis of Variance”, Quality Control and Industrial Statistics (Irwin Publishers, Homewood, Ill. 1986) including the effects of subject and product. Product comparisons are made at the 5% level based on Fisher's least significant differences. […]

Each structure is given as a SMILES string.

Regarding `CCCCCCCCCCCCOS(=O)(=O)[O-].[Na+]` [Sodium Lauryl Sulfate], the “Normalized Score” value (0.2 g undiluted product applied daily for 21 days to same occluded 2-cm square skin patch, total score normalized to 21 readings and 10 subjects) was determined as 431.8. Also, the “Irritation Classification” value (classification of the normalized score, 21-Day Cumulative Irritation Test) is “Moderate”.

The values are drawn from patent US6531119B1, “Compositions with low irritancy” (priority 1998, dated 2003).
